# System: GFP expressing U2OS cells and Hek293 cells
# Experiment: Adhesion peptide screening for low fluorescence/high adherence properties (FABS, microscope)
# Format: cell-based, Human
# Settings: re-synthesized peptides on beads
# Experimental: An adhesion D-amino peptide library was synthesized (500,000 members) as described above in Example 1 and screened for low fluorescence/high adherence properties. This was done in 4 steps:
# 1) Selection of low fluorescent beads by Fluorescence Activated Bead Sorting (FABS).
# The 500,000 member adhesion peptide library was FABSorted and 150,000 low fluorescent beads were isolated.
# 2) Selection of beads with good cell adhesion properties.
# The 150,000 low fluorescent beads were incubated with GFP expressing U2OS cells followed by FABS sorting for high fluorescence (high cell adhesion). 536 beads were isolated.
# 3) Identification and isolation of beads with high Hek293 cell adherence properties.
# The 536 beads were cleared for U2OS cells and incubated with GFP expressing Hek293 cells. 47 beads with high cell adhesion properties were isolated using a fluorescence microscope.
# 4) Sequence elucidation and re-synthesis of selected peptides.
# 22 peptides were sequenced and six of them were re-synthesized. Based on Structure-Activity of the six peptides, four additional ones (AP-7 […] AP-10) were synthesized.
substance,measurement,value
arg-gln-arg-ile-arg (RQRIR; Cell adhesion peptide) [SEQ IS 35],overall performance (low fluorescence/high adherence properties),best overall performance

# Source: US20110319274A1, “Identification of Compounds Modifying a Cellular Response” (Carlsberg A/S, priority 2004, published 2011)
